Results published in patent US8058258B2, “Methods for cancer therapy and stem cell modulation” (Agency for Science, Technology and Research, priority 2006, dated 2011).

How the values were obtained:
BT-549 cells = assay: Apoptotic response time course by FACS analysis; assay type: cell-based; conditions: BT-549, 5 μM, time course to 120 hours
Procedure: (§1) FIG. 6A depicts an analysis of the breast cancer cell lines MCF-7, MB-468, SK-BR-3, MB-231, T47D and BT549 for an apoptotic effect of 5 μM 3-deazaneplanocin over a time frame of 120 hours. Cell death was measured by FACS analysis. Data presented are the average of three independent experiments.
(§2) Cells were trypsinised and washed with PBS and fixed in 70% ethanol and processed for propidium iodide staining and FACS analysis. For the caspase 3 activity assay and mitochondrial membrane potential detection, cells were stained with anti-active caspase 3 and JC-1, respectively, according to the manufacturer's instructions (BD Bioscience).
(§3) To extend the observation seen in MCF-7 cells, additional breast cancer cell lines were screened, including MB-468, SK-BR-3, MB-231, T47D and BT549. […] To identify the PRC2 target genes associated with the cellular sensitivity to 3-deazaneplanocin, the array analysis was performed in these breast cancer cell lines before and after 3-deazaneplanocin treatment and the expression of the 47 identified PRC2 targets profiled. It was reasoned that some the PRC2 target genes might be differentially expressed between the sensitive and resistant cell lines, which might confer the distinct sensitivity to 3-deazaneplanocin. […] Both the real time and conventional RT-PCR analysis of the 4 gene set confirmed the array data (FIGS. 6D & 6E). […]

MB-231 cells = assay: Apoptotic response time course by FACS analysis; assay type: cell-based; conditions: MB-231, 5 μM, time course to 120 hours
Procedure: as §1, §2, §3

[1] = test system: RNA polymerase II binding to PRC2 target gene promoters; assay: ChIP of RNA Pol II binding to PRC2 target gene promoters; assay type: cell-based, human; conditions: MCF-7 cells, 5 μM, 48 hours
Procedure: ChIP assays were performed as described previously. […] MCF-7 cell were seeded into 6-well plates at 30% confluence and treated with or without 3-deazaneplanocin (5 μM) for 48 hours. Cells were washed once in 1× phosphate-buffered saline (PBS) and then treated with 1% formaldehyde in PBS at 37° C. for […] followed by the addition of glycine to a final concentration of 0.125 M for 5 mM. Cells were then scraped on ice and centrifuged at 1500 rpm for 5 mM at 4° C. After washing with PBS cell pellets were resuspended in 1 mL of cold lysis buffer (10 mM HEPES at pH 7.5, 1 mM EDTA at pH 8.0, 400 mM NaCl, 10% glycerol, 0.5% NP-40, 0.5 mM phenylmethylsulfonyl fluoride, and protease inhibitors [1 mM benzamidine, 3 mg/mL leupeptin, 0.1 mg/mL bacitracin, 1 mg/mL macroglobulin]) followed by centrifugation at 11,500 rpm in a microfuge for 5 min at 4° C. to remove protein not cross-linked to chromatin. The resulting pellets were then resuspended again in 1 mL of cold lysis buffer and sonicated with a Heat Systems-Ultrasonics, Inc. W-220 sonicator at 20% output for a total of 2 mM (pulsed: 30 sec on/30 sec off). The resulting solution was cleared by centrifugation at maximum speed in a microfuge for 10 mM at 4° C. At this point 5% of the solution was taken and stored at −20° C. for the input chromatin sample. […]

SMILES: Nc1nccc2c1ncn2C1C=C(CO)C(O)C1O (stereo not drawn) [3-deazaneplanocin, 5-(4-amino-1H-imidazo[4,5-c]pyridin-1-yl)-3-(hydroxymethyl)-3-cyclopentene-1,2-diol]
- sensitivity to 3-deazaneplanocin-induced cell death (BT-549 cells): highly resistant
- sensitivity to 3-deazaneplanocin-induced cell death (MB-231 cells): highly resistant
- binding of RNA Pol II to PRC2 target gene promoters (ChIP) [1]: increased
